# Assay results taken from ChEMBL document CHEMBL3352310, “A perspective on targeting non-structural proteins to combat neglected tropical diseases: Dengue, West Nile and Chikungunya viruses” (Eur J Med Chem, 2014).
# Peptide text beside a SMILES is read from it. * marks the point of attachment. Bz = O=C(c1ccccc1)*
# Experiments:
# Genome polyprotein [1] = target: Genome polyprotein (dengue virus type 2, UniProt P12823); assay: Inhibition of dengue virus-2 NS2B-NS3 protease
# dengue virus type 3 = assay: Antiviral activity against Dengue virus 3; format: functional, organism-based
# dengue virus type 4 = assay: Antiviral activity against Dengue virus 4; format: functional, organism-based
# dengue virus type 2 = assay: Antiviral activity against Dengue virus 2; format: functional, organism-based
# dengue virus type 1 = assay: Antiviral activity against Dengue virus 1; format: functional, organism-based
# Genome polyprotein [2] = target: T1, Genome polyprotein (dengue virus type 2, UniProt Q91H74); assay: Inhibition of dengue virus-3 NS2B-NS3 protease; set-up: species or system dengue virus type 3
# Genome polyprotein [3] = target: T1, Genome polyprotein; assay: Inhibition of dengue virus-4 NS2B-NS3 protease; set-up: species or system dengue virus type 4
# Genome polyprotein [4] = target: T1, Genome polyprotein; assay: Inhibition of dengue virus-1 NS2B-NS3 protease; set-up: species or system dengue virus type 1
# Genome polyprotein [5] = target: T1, Genome polyprotein; assay: Inhibition of dengue virus NS2B-NS3 protease
# Chikungunya virus = assay: Antiviral activity against Chikungunya virus assessed as inhibition of viral replication; format: functional
# [6] = Inhibition of Dengue virus-3 N7-methyltransferase; set-up: species or system dengue virus type 3
# [7] = Inhibition of Dengue virus-3 2'-O-methyltransferase; set-up: species or system dengue virus type 3
# [8] = Inhibition of Dengue virus RNA-directed RNA polymerase NS5
# Genome polyprotein [9] = target: T2, Genome polyprotein (West Nile virus, UniProt P06935); assay: Inhibition of West Nile virus NS2B-NS3 protease
# Dengue virus [10] = assay: Antiviral activity against Dengue virus assessed as inhibition of viral replication; format: functional, organism-based
# Genome polyprotein [11] = target: T2, Genome polyprotein; assay: Non-competitive inhibition of West Nile virus NS2B-NS3 protease
# Dengue virus [12] = assay: Antiviral activity against Dengue virus assessed as inhibition of viral RNA replication; format: functional, organism-based
# Dengue virus [13] = assay: Antiviral activity against Dengue virus; format: functional, organism-based
compound,measurement,setting,value
N#Cc1ccc(OC(=O)c2ccc(NC(=N)N)cc2)cc1,IC50,Genome polyprotein [1],37900 nM
same,Ki,Genome polyprotein [1],31100 nM
O=C1c2c(O)ccc([N+](=O)[O-])c2C(=O)c2c([N+](=O)[O-])ccc(O)c21,EC50,dengue virus type 3,3080 nM
same,EC50,dengue virus type 4,880 nM
same,EC50,dengue virus type 2,440 nM
same,EC50,dengue virus type 1,5960 nM
Cc1ccc(S(=O)(=O)Nc2cc(SCC(=O)O)c(O)c3ccccc23)cc1[N+](=O)[O-],EC50,dengue virus type 3,2430 nM
same,EC50,dengue virus type 4,740 nM
same,EC50,dengue virus type 2,980 nM
same,EC50,dengue virus type 1,970 nM
N=C(N)Nc1ccc(O[C@H]2C[C@@H](Oc3ccc(NC(=N)N)cc3NC(=N)N)[C@H](NC(=N)N)C[C@@H]2NC(=N)N)c(NC(=N)N)c1,IC50,Genome polyprotein [2],1000 nM
same,IC50,Genome polyprotein [3],1000 nM
same,IC50,Genome polyprotein [4],1000 nM
same,IC50,Genome polyprotein [1],1000 nM
COc1ccc(-c2nnc(C(Cc3ccccc3)n3sc4ccccc4c3=O)o2)cc1 (stereo not drawn),IC50,Genome polyprotein [5],3750 nM
CCOc1ccc(/C=N/NC(=O)/C=C/c2ccc(C(C)(C)C)cc2)cc1OCC,IC50,Chikungunya virus,3200 nM
N=C(N)Nc1ccc(OC(=O)c2ccc(NC(=N)N)cc2)cc1,IC50,Genome polyprotein [1],7700 nM
same,Ki,Genome polyprotein [1],2000 nM
NC(CCSC[C@H]1O[C@@H](n2ccc3c(NCc4cccc(Cl)c4)ncnc32)C(O)C1O)C(=O)O (stereo partly drawn),Ki,[6],820 nM
same,Ki,[7],170 nM
O=c1cc(-c2ccc(Oc3c(O)cc4occ(-c5ccc(O)cc5)c(=O)c4c3O)cc2)oc2cc(O)cc(O)c12,IC50,[8],260 nM
COc1ccc(-c2coc3c(-c4cc(-c5cc(=O)c6c(O)cc(O)cc6o5)ccc4O)c(O)cc(O)c3c2=O)cc1,IC50,[8],750 nM
N=C(N)NCCC[C@H](NC(=O)[C@H](CCCCN)NC(=O)[C@H](CCCCN)NC(=O)C1CC1)C(=O)O,IC50,Genome polyprotein [9],380 nM
O=c1c(OC2O[C@H](CO)[C@@H](O)[C@H](O)[C@H]2O)c(-c2ccc(OC3O[C@H](CO)[C@@H](O)[C@H](O)[C@H]3O)c(O)c2)oc2cc(O)cc(O)c12 (stereo partly drawn),IC50,Dengue virus [10],1700 nM
Oc1c(C(Nc2nccs2)c2cccc(OCc3ccccc3)c2)ccc2cccnc12 (stereo not drawn),IC50,Genome polyprotein [9],2010 nM
CCc1ccc(NC(=O)CSc2nc3ccc(NC(=O)CSc4nnc(-c5ccccc5)n4C)cc3s2)cc1,IC50,Genome polyprotein [9],3400 nM
Cc1ccc2c(c1)-c1c(=O)nc(SCc3ccccc3)[nH][n+]1C(c1ccc(Cl)cc1)N2 (stereo not drawn),IC50,Genome polyprotein [11],5410 nM
CCCSc1nnc(N2C(=O)C(O)=C(C(=O)c3ccc(Cl)cc3)C2c2ccc(Cl)cc2)s1 (stereo not drawn),IC50,Genome polyprotein [11],2200 nM
CC(C)C[C@@H]1NC(=O)[C@H](CCCN)NC(=O)[C@H](C(C)C)NC(=O)[C@H](Cc2ccc(O)cc2)N[C@@H](CCC(=O)O)C(=O)N[C@@H](CC(N)=O)C(=O)[C@@H](Cc2ccccc2)NC(=O)[C@H](Cc2ccccc2)NC(=O)[C@@H]2CCCN2C(=O)[C@@H](Cc2ccccc2)NC1=O,Ki,Genome polyprotein [9],2000 nM
N=C(N)N[C@H]1CC[C@H](CNC(=O)[C@H](CCCCN)NC(=O)[C@H](CCCCN)NC(=O)Cc2ccc(Cl)c(Cl)c2)CC1,Ki,Genome polyprotein [9],130 nM
O=c1cc(-c2ccccc2)oc2ccc(-c3cn[nH]n3)cc12,IC50,Genome polyprotein [5],69000 nM
Cc1cc(C)c2c(c1)OC(c1ccc(N(C)C)cc1)CC2=O (stereo not drawn),IC50,Genome polyprotein [5],121000 nM
Cc1ccc(C(NN=C(N)N)[PH](=O)O)cc1 (stereo not drawn),IC50,Genome polyprotein [5],14000 nM
N=C(N)NCCC[C@H](NC(=O)[C@H](CCCCN)NC(=O)[C@H](CCCCN)NC(=O)c1ccccc1)C(=O)O (Bz-Lys-Lys-Arg-OH),IC50,Genome polyprotein [9],420 nM
NC(=O)[C@H](Cc1c[nH]c2ccccc12)NC(=O)[C@H](CS)NC(=O)[C@H](Cc1ccc(O)cc1)NC(=O)[C@@H](N)Cc1c[nH]c2ccccc12 (H-WYCW-NH2),Ki,Genome polyprotein [2],24400 nM
same,Ki,Genome polyprotein [3],11200 nM
same,Ki,Genome polyprotein [4],4200 nM
same,Ki,Genome polyprotein [1],4800 nM
O=c1c(O[C@@H]2O[C@@H](CO)[C@H](O)[C@H]2O)c(-c2ccc(O)c(O)c2)oc2cc(O)cc(O)c12 [AVICULARIN],IC50,Dengue virus [10],1700 nM
C=C(C)[C@@H]1CC[C@]2(C(=O)O)CC[C@]3(C)[C@H](CC[C@@H]4[C@@]5(C)CC[C@H](O)C(C)(C)[C@@H]5CC[C@]43C)[C@@H]12 [BETULINIC ACID],IC50,Dengue virus [10],1700 nM
Cc1nc(Nc2ncc(C(=O)Nc3c(C)cccc3Cl)s2)cc(N2CCN(CCO)CC2)n1 [DASATINIB],EC50,Dengue virus [12],110 nM
O=c1c(O[C@@H]2O[C@H](CO)[C@H](O)[C@H](O)[C@H]2O)c(-c2ccc(O)c(O)c2)oc2cc(O)cc(O)c12 [HYPEROSIDE],IC50,Dengue virus [10],1700 nM
COc1cc2c(cc1OC)-c1cc3ccc(OC)c(OC)c3c[n+]1CC2 [PALMITINE],IC50,Genome polyprotein [11],96000 nM
C[C@@H]1O[C@@H](Oc2c(-c3ccc(O)c(O)c3)oc3cc(O)cc(O)c3c2=O)[C@H](O)[C@H](O)[C@H]1O [QUERCITRIN],IC50,Dengue virus [10],1700 nM
NC(=O)c1ncn([C@@H]2O[C@H](CO)[C@@H](O)[C@H]2O)n1 [RIBAVIRIN],EC50,Dengue virus [13],49000 nM
C[C@@H]1O[C@@H](OC[C@H]2O[C@@H](Oc3c(-c4ccc(O)c(O)c4)oc4cc(O)cc(O)c4c3=O)[C@H](O)[C@@H](O)[C@@H]2O)[C@H](O)[C@H](O)[C@H]1O [RUTIN],IC50,Dengue virus [10],1700 nM
CN1CCN(CCOc2cc(OC3CCOCC3)c3c(Nc4c(Cl)ccc5c4OCO5)ncnc3c2)CC1 [SARACATINIB],EC50,Dengue virus [12],1600 nM
O=c1c(O)c(-c2ccc(O[C@@H]3O[C@H](CO)[C@@H](O)[C@H](O)[C@H]3O)c(O)c2)oc2cc(O)cc(O)c12 [SPIRAEOSIDE],IC50,Dengue virus [10],1700 nM
